Experimental data: patent US20090241222A1, “TANDEM REAPEAT DNA CONSTRUCTS PRODUCING PROTEINS THAT ATTACK PLANT PATHOGENIC VIRUSES, FUNGI, AND BACTERIA BY DISRUPTING TRANSCRIPTION FACTORS ESSENTIAL FOR REPLICATION THEREOF IN PLANTS” (priority 2008, published 2009)
Entries after “also recorded” stand apart in the source; their conditions may differ. Where two headings read alike, the source gives them in different places.

Columns and labels:
mammalian retroviruses = settings: millimolar concentrations; cited from earlier work
Mammalian rotaviruses = settings: millimolar concentrations; cited from earlier work
[1] = target: T1, recombinant MPS-1 (CCCC zinc finger) (Homo sapiens, UniProt P42677); assay: Gel shift assay and radioactive Zn65 removal from recombinant MPS-1; assay type: biochemical
T1 construct: made in house
Text: MPS-1 is a ubiquitous tumor marker and cell growth stimulator and is described in detail in the inventors' U.S. Pat. No. 5,243,041. MPS-1 has one zinc finger domain of the type CCCC. […] This is detected by a change in the electrophoretic mobility of MPS-1 under non-denaturing conditions. These experiments indicate that picolinic acid and derivatives should remove zinc and denature various types of zinc finger, zinc ring proteins, or other types of ZF motifs whether known or heretofore undiscovered, including animal or plant viral proteins such as nucleocapsid proteins of retrovirus or the nucleocapsid proteins of Geminivirus. Furthermore, the inventors have determined that any chemical compound, whether known or heretofore undiscovered, that will remove the zinc (or other metal) and denature the proteins or that will form a ternary complex (protein-zinc-chelator) can be effective as an antiviral agent, with nontoxic effects, provided that the agent conforms with certain specific structural requirements.

[2] = system: HIV-1, Hepatitis C and numerous other viruses as well as the host cells; assay: Fate of virus-infected host cells after treatment; assay type: cell-based
Text: APOPTOSIS. Apoptosis is a morphological pattern of cell injury and an important mode of cell death (Robbins, Pathological Basis of Disease, 1999, 6th Ed). Apoptosis shares and overlaps common mechanisms with necrosis. […] This form of cell death is designed to eliminate defective, unwanted and damaged cells. For example, the inventors have shown that cells infected by Herpes Simplex Virus 1 (HSV; labialis) and HSV-2 genitalis are destroyed together with the host cells that they infected by apoptosis when exposed to pyridine carboxylates (Fernandez-Pol, Anticancer Res. 2002). […] Thus, the inventors believes that when host cells of animals or plants are infected by pathogenic viruses, unless the treatment is extremely quickly, the host cells and the virus will be destroyed. In fact, host cells defective, mutated, and reservoirs for the novo synthesis of viruses are unwanted host cells and must be eliminated in many instances to allow the survival of the organism.

[3] = system: SV40 transformed BALB-3T3 cells; settings: cited from earlier work
[4] = system: virally-transformed cells; settings: cited from earlier work
NRK cells = settings: cells treated with picolinic acid; cited from earlier work
[5] = system: marker defense genes PR-1, PR-2 and PDF1.2; settings: dose-dependent and time dependent; cited from earlier work
rice = settings: in vivo; cited from earlier work
[6] = system: cells (iron incorporation); settings: cited from earlier work
[7] = system: normal cells (NRK, BALB 3T3); settings: cited from earlier work
[8] = system: Common ornamental plant cells infected by viruses; assay: Treatment of virus-infected ornamental plants; settings: viral strains not determined
Orobanche ramosa = settings: Arabidopsis thaliana pre-treated with FU; cited from earlier work
HSV-1 = settings: tissue culture and animals; cited from earlier work
HSV-2 = settings: tissue culture and animals; cited from earlier work
Arabidopsis thaliana [9] = settings: in vivo; cited from earlier work
[10] = system: tomato spotted wilt virus; settings: tomato and tobacco plants; cited from earlier work
Arabidopsis thaliana [11] = settings: cited from earlier work

Structure (SMILES): O=C(O)CN(CCOCCOCCN(CC(=O)O)CC(=O)O)CC(=O)O [EGTA]
- disintegration of viral membranes (release of reverse transcriptase) (mammalian retroviruses): partial disintegration of viral membranes
- disintegration of viral membranes and release of Zinc Finger Proteins (Mammalian rotaviruses): partial disintegration of the viral membranes

Structure (SMILES): O=C(O)c1ccccn1 [picolinic acid, 2-pyridine carboxylic acid]
- removal of zinc (radioactive Zn65) from CCCC zinc finger of MPS-1 [1]: remove radioactive Zn65 from MPS-1; also recorded: remove zinc
- zinc dependent binding of recombinant MPS-1 to DNA (gel shift assays) [1]: inhibit the zinc dependent binding of recombinant MPS-1 to DNA
- fate of viruses and host cells after treatment [2]: Death by apoptosis
- mitochondrial cytochrome c release ([3]; 3 mM picolinic acid): released cytochrome c
- cell cycle arrest, Flow Microfluorometric Analysis of DNA ([4]; Kirsten sarcoma virus transformed cells): G1 phase
- cytotoxicity in transformed cells ([4]; longer exposure/further incubation): cytotoxicity and cell death was observed in all transformed cells; also recorded: cell death by apoptosis was observed in all transformed cells
- potency of prostaglandin E1 in elevating cyclic AMP (NRK cells): two to five times more potent
- induction of marker defense genes PR-1, PR-2 and PDF1.2 [5]: all induced
- hypersensitive response (HR) (rice): elicit the hypersensitive response (HR)
- incorporation of iron into the cells [6]: inhibits incorporation of iron into the cells
- removal of radioiron from the cells [6]: effectively removes radioiron from the cells
- toxicity to normal cells [7]: no toxic effects
- outcome of treatment of virus-infected ornamental plants [8]: positive results

Structure (SMILES): CCCCc1ccc(C(=O)O)nc1 [fusaric acid, 5-butyl picolinic acid]
- removal of zinc (radioactive Zn65) from CCCC zinc finger of MPS-1 [1]: remove radioactive Zn65 from MPS-1; also recorded: remove zinc
- zinc dependent binding of recombinant MPS-1 to DNA (gel shift assays) [1]: inhibit the zinc dependent binding of recombinant MPS-1 to DNA
- fate of viruses and host cells after treatment [2]: Death by apoptosis
- germination of the angiosperm parasite (Orobanche ramosa): inhibited
- efficacy against viral infection by HSV-1 (HSV-1): effective
- efficacy against viral infection by HSV-2 (HSV-2): effective
- concentration eliciting plant defense responses without toxic effects (Arabidopsis thaliana [9]): 100 nM
- concentrations that reduced root growth and induced membrane hyperpolarization/depolarization (Arabidopsis thaliana [9]): > 500 µM
- outcome of treatment of virus-infected ornamental plants [8]: positive results

Structure (SMILES): NC(=O)c1ncn([C@@H]2O[C@H](CO)[C@@H](O)[C@H]2O)n1 [Virazole (Ribavirin)]
- use against tomato spotted wilt virus [10]: successfully used

Structure (SMILES): NC(=O)c1cccnc1 [Nicotinamide, reference compound]
- effect on cell growth or apoptosis ([3]; at 48 h): no effect

Structure (SMILES): O=C(O)CN(CCN(CC(=O)O)CC(=O)O)CC(=O)O [EDTA]
- disintegration of viral membranes (release of reverse transcriptase) (mammalian retroviruses): partial disintegration of viral membranes
- disintegration of viral membranes and release of Zinc Finger Proteins (Mammalian rotaviruses): partial disintegration of the viral membranes

Structure (SMILES): COS(C)(=O)=O [MMS, Methyl Methane Sulphonate]
- growth and size of the plant (Arabidopsis thaliana [11]; ars27A mutant, 3 weeks): strongly inhibited
- growth and size of the plant (Arabidopsis thaliana [11]; wild type, same concentrations): not affecting
